From ChEMBL document CHEMBL1201862, “PubChem BioAssay data set” (2004)
Values belong to the molecule of their own block, whether it stands above or below them. Activity calls are given as the source filed them.

Legend:
[1] = target: T1, Voltage-gated N-type calcium channel alpha-1B subunit/Amyloid beta A4 precursor protein-binding family A member 1 (Homo sapiens, UniProt Q00975+Q02410); assay type: protein assay
[2] = target: T1, Voltage-gated N-type calcium channel alpha-1B subunit/Amyloid beta A4 precursor protein-binding family A member 1; assay type: protein assay; remark: listed apart in the source
[3] = target: Female germline-specific tumor suppressor gld-1 (Caenorhabditis elegans, UniProt Q17339); assay: blockers of GLD-1/TGE RNA complex formation – biochemical, fluorescence polarization, C. elegans, dose response (AID 2802);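 further: fluorescence polarization of labeled TGE RNA bound by purified gld-1 protein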
Protein Rev = Protein Rev (Human immunodeficiency virus type 1 group M subtype B (isolate HXB2)(HIV-1), UniProt P04618); assay: blockers of HIV Rev/RRE RNA complex – biochemical, fluorescence polarization, HIV-1, dose response (AID 434976); set-up: species or system Human immunodeficiency virus 1
[4] = target: T2, Apoptotic protease-activating factor 1 (Homo sapiens, UniProt O14727); assay type: functional
T2 sequence (O14727 whole entry): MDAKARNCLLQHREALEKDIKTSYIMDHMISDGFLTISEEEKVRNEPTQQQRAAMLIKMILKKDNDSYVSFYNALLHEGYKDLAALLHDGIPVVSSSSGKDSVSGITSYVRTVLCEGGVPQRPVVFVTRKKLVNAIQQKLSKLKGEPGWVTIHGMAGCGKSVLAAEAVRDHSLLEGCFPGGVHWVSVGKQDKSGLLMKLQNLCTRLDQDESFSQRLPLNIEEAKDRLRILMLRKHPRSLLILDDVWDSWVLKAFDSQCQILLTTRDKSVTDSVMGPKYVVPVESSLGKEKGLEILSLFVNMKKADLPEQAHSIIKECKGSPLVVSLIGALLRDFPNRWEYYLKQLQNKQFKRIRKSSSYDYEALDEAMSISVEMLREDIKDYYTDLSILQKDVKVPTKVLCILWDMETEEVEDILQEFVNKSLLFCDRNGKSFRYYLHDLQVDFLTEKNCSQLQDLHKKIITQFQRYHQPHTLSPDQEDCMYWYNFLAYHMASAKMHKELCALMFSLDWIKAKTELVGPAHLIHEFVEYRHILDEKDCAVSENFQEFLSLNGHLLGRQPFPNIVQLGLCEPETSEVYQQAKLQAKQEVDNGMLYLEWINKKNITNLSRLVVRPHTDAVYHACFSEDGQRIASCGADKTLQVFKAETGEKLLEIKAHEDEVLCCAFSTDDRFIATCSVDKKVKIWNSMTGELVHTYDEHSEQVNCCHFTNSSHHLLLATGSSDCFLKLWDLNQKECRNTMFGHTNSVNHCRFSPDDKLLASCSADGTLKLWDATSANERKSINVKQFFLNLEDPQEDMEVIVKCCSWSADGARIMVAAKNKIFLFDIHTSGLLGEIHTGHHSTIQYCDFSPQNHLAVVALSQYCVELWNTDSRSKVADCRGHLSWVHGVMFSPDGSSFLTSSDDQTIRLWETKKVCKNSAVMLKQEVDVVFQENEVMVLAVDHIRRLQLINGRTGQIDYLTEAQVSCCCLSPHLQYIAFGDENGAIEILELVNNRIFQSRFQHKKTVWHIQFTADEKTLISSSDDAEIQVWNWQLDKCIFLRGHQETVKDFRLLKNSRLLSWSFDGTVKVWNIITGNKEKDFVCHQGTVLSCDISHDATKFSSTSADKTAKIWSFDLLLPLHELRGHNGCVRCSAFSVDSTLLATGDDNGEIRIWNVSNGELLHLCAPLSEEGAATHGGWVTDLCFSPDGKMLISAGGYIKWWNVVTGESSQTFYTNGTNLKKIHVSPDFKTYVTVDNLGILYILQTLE

[5] = target: Neurotensin receptor type 1 (Homo sapiens, UniProt P30989); assay type: functional;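 further: Image-based confirmatory dose-response assay measuring agonist activity at NTR1; NTR1-expressing U2OS osteosarcoma cells imaged for beta-arrestin GFP spot formation; agonist potency where compounds increase beta-arrestin recruitment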
[6] = target: T3, RNA-binding protein pos-1 (Caenorhabditis elegans, UniProt G5EF15); assay: disruptors of C. elegans POS-1 RNA interaction – biochemical, fluorescence polarization, dose response (AID 1964);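 further: purified POS-1 fused to maltose binding protein made in E. coli; potency of compounds blocking POS-1 binding to fluorescent RNA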
T3 sequence (G5EF15 whole entry): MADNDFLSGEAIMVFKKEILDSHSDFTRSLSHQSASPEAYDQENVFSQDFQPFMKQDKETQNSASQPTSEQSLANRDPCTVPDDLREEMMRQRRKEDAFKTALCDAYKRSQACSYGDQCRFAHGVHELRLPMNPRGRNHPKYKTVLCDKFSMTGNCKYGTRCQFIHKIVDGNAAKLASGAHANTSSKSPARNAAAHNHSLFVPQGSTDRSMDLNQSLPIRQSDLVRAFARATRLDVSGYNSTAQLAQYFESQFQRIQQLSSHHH

[7] = target: T4, Zinc finger protein mex-5 (Caenorhabditis elegans, UniProt Q9XUB2); assay: potency of MEX-5 RNA-binding blockers – biochemical, C. elegans, fluorescence polarization, dose response (AID 1960)
T4 sequence (Q9XUB2 whole entry): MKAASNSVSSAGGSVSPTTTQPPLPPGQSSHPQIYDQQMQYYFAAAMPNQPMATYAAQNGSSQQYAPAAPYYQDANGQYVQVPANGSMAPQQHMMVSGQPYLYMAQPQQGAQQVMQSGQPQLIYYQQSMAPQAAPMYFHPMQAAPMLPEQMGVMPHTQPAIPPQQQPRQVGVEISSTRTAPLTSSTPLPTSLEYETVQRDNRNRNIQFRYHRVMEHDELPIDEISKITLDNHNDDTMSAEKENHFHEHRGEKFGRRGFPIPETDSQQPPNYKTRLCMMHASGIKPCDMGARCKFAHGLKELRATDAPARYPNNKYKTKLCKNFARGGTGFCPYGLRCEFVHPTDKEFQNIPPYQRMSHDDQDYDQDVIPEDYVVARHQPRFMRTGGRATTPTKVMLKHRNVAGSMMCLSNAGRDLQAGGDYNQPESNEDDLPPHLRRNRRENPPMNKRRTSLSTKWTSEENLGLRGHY

[8] = HEK-293T cell viability reduction – luminescence, B-cell screen hits, cytotoxicity control for BCR NF-kB inhibitor project, dose response (AID 489021); assay type: functional, cell-based;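 further: HEK-293T cells carrying an NF-kB luciferase reporter; cells exposed to compound for about 14 hours before viability readout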
CAAX prenyl protease 2 = target: T5, CAAX prenyl protease 2 (Homo sapiens, UniProt Q9Y256); assay: inhibition of Ras-converting CAAX protease Rce1 – biochemical, yeast membranes, quenched-peptide fluorescence, cherry-pick, dose response (AID 588849)
T5 sequence (Q9Y256 whole entry): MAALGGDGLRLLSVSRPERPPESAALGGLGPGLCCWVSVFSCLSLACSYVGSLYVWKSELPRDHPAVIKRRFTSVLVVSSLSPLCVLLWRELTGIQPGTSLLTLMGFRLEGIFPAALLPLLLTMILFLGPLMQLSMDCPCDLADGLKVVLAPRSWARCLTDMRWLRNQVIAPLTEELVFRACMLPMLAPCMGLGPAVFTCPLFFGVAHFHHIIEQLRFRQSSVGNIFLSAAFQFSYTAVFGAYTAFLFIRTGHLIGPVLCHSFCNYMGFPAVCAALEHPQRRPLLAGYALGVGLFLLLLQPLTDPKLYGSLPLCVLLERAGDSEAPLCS

Trypsin = Trypsin (Sus scrofa, UniProt P00761); assay: trypsin protease activity blockade – biochemical, quenched peptide fluorescence, cherry-pick, selectivity assay for Rce1 protease inhibitor project, dose response (AID 488789)
Sequence of Trypsin (P00761 whole entry): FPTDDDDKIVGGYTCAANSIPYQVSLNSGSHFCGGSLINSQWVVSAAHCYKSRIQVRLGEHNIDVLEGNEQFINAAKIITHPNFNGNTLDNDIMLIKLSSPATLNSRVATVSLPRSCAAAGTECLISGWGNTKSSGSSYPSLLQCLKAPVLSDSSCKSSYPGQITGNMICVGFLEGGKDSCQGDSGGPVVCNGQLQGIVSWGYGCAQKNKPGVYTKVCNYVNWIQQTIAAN

T1 sequence (Q00975 whole entry): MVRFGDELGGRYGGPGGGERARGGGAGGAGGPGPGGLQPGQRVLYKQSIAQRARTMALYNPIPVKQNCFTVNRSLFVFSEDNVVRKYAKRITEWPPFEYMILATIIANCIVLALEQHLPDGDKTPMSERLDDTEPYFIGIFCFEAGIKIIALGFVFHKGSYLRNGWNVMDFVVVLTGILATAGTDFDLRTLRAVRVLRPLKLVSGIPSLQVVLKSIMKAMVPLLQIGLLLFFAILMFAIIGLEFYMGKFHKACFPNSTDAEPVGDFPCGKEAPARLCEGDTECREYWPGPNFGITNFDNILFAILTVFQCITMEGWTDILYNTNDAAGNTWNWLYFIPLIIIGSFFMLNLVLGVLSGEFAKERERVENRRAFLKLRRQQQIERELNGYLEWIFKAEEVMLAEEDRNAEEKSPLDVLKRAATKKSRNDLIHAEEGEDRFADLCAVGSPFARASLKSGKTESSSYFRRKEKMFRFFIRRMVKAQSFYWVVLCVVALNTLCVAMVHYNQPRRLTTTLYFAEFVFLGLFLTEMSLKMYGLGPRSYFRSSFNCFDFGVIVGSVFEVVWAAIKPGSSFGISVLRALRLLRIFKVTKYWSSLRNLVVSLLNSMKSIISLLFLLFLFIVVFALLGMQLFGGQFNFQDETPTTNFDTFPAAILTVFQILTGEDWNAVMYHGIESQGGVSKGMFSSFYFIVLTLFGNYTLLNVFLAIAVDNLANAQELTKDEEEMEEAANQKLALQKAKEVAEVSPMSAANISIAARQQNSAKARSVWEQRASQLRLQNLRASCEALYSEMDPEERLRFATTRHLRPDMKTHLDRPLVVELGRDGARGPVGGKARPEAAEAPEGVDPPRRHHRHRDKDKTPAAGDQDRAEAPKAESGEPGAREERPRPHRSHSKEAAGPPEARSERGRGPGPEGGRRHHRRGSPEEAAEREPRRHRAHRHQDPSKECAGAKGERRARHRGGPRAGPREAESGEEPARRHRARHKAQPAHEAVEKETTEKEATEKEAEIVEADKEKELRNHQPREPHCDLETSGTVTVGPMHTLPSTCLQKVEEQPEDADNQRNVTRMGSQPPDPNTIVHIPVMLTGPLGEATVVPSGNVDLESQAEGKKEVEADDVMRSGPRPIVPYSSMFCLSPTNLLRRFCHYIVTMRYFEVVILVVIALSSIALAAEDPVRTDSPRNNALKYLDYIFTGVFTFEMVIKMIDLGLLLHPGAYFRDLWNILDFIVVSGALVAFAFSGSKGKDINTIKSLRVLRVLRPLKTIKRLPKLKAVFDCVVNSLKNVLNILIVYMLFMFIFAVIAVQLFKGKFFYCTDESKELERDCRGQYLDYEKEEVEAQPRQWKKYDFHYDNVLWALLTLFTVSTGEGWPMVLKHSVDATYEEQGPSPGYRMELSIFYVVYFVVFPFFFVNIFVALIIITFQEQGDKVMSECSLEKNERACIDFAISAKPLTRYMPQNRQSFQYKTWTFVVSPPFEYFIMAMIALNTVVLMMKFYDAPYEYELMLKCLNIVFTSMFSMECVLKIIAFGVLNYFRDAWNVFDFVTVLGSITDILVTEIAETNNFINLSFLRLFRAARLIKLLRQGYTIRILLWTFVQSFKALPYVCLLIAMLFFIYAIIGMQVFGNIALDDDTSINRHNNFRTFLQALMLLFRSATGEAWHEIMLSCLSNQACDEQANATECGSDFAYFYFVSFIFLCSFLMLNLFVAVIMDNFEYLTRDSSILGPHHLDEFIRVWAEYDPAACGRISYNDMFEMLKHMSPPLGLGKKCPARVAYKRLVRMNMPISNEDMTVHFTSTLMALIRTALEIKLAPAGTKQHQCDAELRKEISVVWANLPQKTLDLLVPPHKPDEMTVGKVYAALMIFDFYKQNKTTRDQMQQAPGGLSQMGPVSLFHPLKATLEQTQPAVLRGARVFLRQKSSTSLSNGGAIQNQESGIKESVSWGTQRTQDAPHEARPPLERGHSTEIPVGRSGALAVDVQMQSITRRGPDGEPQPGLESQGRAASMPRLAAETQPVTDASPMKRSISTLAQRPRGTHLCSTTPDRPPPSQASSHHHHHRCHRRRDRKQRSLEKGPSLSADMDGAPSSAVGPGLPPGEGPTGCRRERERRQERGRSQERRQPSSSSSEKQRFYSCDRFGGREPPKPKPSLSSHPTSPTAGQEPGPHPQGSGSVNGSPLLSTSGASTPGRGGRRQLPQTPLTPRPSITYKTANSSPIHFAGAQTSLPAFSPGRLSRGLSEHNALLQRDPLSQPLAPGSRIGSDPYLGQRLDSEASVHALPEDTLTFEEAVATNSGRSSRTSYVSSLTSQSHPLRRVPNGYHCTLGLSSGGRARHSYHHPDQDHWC
T1 sequence (Q02410 whole entry): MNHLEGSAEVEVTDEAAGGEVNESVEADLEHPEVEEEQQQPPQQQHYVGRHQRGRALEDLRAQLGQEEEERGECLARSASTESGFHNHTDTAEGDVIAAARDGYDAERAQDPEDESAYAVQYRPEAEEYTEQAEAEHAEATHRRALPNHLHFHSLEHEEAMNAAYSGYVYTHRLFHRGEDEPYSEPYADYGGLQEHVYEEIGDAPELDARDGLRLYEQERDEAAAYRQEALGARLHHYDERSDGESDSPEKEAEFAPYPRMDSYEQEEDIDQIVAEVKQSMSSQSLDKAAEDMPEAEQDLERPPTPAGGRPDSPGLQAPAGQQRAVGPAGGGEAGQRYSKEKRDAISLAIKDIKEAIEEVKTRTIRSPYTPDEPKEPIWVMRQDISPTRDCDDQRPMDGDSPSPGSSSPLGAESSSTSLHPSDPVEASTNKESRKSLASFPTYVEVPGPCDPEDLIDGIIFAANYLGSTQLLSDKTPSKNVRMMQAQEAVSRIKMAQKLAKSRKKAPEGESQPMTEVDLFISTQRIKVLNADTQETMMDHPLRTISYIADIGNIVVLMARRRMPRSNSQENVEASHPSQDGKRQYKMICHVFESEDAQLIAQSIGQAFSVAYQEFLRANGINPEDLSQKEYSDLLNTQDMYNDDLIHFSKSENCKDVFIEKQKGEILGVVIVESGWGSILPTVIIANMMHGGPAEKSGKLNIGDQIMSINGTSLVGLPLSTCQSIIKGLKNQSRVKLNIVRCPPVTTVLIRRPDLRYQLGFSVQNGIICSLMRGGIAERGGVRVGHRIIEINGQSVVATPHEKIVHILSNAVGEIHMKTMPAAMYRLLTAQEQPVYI
Sequence of Protein Rev (P04618 whole entry): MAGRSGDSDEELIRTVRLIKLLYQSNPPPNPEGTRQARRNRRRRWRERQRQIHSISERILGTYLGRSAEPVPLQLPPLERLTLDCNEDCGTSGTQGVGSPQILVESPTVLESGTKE
Sequence of Neurotensin receptor type 1 (P30989 whole entry, the tested form may be a part): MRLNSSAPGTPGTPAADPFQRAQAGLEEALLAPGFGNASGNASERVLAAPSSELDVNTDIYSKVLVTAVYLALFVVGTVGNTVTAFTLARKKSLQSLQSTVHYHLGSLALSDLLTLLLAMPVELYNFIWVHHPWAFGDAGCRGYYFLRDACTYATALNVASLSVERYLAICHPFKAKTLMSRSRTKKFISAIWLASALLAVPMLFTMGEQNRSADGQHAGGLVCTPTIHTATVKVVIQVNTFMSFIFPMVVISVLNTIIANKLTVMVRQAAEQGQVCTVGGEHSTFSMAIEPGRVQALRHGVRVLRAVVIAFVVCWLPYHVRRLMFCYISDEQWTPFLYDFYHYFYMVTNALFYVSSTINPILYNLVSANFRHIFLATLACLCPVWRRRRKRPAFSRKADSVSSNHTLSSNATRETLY
Sequence of Female germline-specific tumor suppressor gld-1 (Q17339 whole entry): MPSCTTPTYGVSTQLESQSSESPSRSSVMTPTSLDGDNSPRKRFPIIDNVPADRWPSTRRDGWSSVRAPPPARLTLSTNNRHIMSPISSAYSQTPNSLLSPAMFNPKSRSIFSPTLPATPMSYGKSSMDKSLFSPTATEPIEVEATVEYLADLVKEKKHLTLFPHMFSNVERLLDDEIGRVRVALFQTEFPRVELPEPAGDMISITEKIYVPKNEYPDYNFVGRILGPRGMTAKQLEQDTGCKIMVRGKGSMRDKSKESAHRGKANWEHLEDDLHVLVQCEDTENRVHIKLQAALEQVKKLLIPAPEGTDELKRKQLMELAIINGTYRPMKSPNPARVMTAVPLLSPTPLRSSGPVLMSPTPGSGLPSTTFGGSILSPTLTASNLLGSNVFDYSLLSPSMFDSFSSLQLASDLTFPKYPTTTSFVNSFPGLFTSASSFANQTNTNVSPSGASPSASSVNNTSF

SMILES: Nc1cc2nc3ccccc3nc2cc1N
- IC50 [1]: 9.86 µM (active)
- IC50 [2]: > 50 µM (inactive)
- IC50 [3]: 4.97 µM (active)
- IC50 (Protein Rev): 9.53 µM (active)
- IC50 [4]: > 100 µM (inactive)

- EC50 [5]: 8.64 µM (active)
- EC50 [6]: 152 µM (active)
- EC50 [7]: > 300 µM (not active)
SMILES: O=C(CC1Nc2ccccc2NC1=O)Nc1cc(Cl)cc(Cl)c1 (stereo unspecified)

SMILES: NC(=S)N=Nc1c(O)n(Cc2ccccc2)c2ccccc12
- IC50 [8]: > 80 µM (inactive)

- AC50 (CAAX prenyl protease 2): 5.44 µM (active)
- AC50 (Trypsin): 1.41 µM (active)
SMILES: C=CCn1c(=O)c2c(nc(-c3ccc(S(=O)(=O)O)cc3)n2C)n(C)c1=O
